From US10981902B2 (Merck Sharp & Dohme Corp., priority 2017, dated 2021) come the findings set out here.

In the assay the target is T1, human M4 muscarinic acetylcholine receptor (Homo sapiens, UniProt P08173).
T1 construct: expressed in transfected cells; host or cells: CHO-K1
T1 sequence (P08173 1-479): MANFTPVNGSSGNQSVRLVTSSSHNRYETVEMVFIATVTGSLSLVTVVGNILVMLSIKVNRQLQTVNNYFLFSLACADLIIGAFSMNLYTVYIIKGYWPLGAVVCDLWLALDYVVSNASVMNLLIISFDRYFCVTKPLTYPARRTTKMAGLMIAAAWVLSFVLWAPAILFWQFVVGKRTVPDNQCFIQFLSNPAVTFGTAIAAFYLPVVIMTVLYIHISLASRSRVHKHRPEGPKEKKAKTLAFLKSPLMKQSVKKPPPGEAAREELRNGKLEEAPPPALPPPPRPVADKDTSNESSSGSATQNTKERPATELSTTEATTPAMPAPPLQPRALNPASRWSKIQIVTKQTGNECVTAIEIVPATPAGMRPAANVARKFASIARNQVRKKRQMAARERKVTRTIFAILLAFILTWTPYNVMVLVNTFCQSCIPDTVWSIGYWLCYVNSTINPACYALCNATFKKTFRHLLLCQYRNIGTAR
Nature of the assay: human FLIPR-based M4 PAM assay (calcium mobilization, CHO-K1 cells with human M4 receptor and Gαqi5). The class given is cell-based. The settings on record: inflection point (IP) of dose response curve, acetylcholine added at 20% of maximum response, read-out: M4 FLIPPR Hu IP. The procedure, abridged: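 CHO-K1 cells stably expressing human M4 and Gαqi5, dye-loaded ~1 h at 37 °C, read on FLIPR Tetra. Test compound added at increasing concentrations 4 min before acetylcholine at an EC20 concentration, sometimes followed by an EC70 addition. Dose-response curves fit to a 4-parameter logistic; result is the curve inflection point.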
Background: Calcium flux is commonly read through the fluorescence of an indicator in the cells.
For the molecule `CN1Cc2ccc(-c3nc(C#N)ccc3-c3cnc(CC4(F)CCCC4)o3)cc2C1=O` [Example 82, 5-(2-((1-fluorocyclopentyl)methyl)oxazol-5-yl)-6-(2-methyl-3-oxoisoindolin-5-yl)picolinonitrile], the EC50 was found to be 42 nM. Then `CC(Cc1ncc(-c2ccc(C#N)nc2-c2ccc3cccnc3c2)o1)C(C)(C)F` (centres unmarked) [Example 83, 5-(2-(3-fluoro-2,3-dimethylbutyl)oxazol-5-yl)-6-(quinolin-7-yl) picolinonitrile], with 68 nM. Then `N#Cc1ccc(-c2cnc(CC(F)C3CC3)o2)c(-c2ccn3ccnc3c2)n1` (centres unmarked) [Example 84, 5-(2-(2-cyclopropyl-2-fluoroethyl)oxazol-5-yl)-6-(imidazo[1,2-a]pyridin-7-yl) picolinonitrile], with 30 nM; and `N#Cc1ccc(-c2cnc(CC(F)C3CC3)o2)c(-c2ccn3ccnc3c2)n1` (centres unmarked) [Example 85, 5-(2-(2-cyclopropyl-2-fluoroethyl)oxazol-5-yl)-6-(imidazo[1,2-a]pyridin-7-yl) picolinonitrile], with 49 nM; and `Cc1cn2ccc(-c3nc(C#N)ccc3-c3cnc(CC(C)(C)F)o3)cc2n1` [Example 86, 5-(2-(2-fluoro-2-methylpropyl)oxazol-5-yl)-6-(2-methylimidazo [1,2-a]pyridin-7-yl) picolinonitrile], with 101 nM.

Take `Cc1cn2ccc(-c3nc(C#N)ccc3-c3cnc(CC(F)C4CC4)o3)cc2n1` (centres unmarked) [Example 87, 5-(2-(2-cyclopropyl-2-fluoroethyl)oxazol-5-yl)-6-(2-methylimidazo [1,2-a]pyridin-7-yl) picolinonitrile]: the EC50 is 44 nM.

Take `Cc1cn2ccc(-c3nc(C#N)ccc3-c3cnc(CC(F)C4CC4)o3)cc2n1` (centres unmarked) [Example 88, 5-(2-(2-cyclopropyl-2-fluoroethyl)oxazol-5-yl)-6-(2-methylimidazo [1,2-a]pyridin-7-yl)picolinonitrile]: the EC50 came to 63 nM. In the case of `Cc1nc2cc(-c3nc(C#N)ccc3-c3cnc(CC(C)(C)F)o3)ccc2n1C` [Example 89, 6-(1,2-dimethyl-1H-benzo[d]imidazol-5-yl)-5-(2-(2-fluoro-2-methylpropyl)oxazol-5-yl)picolinonitrile], the EC50 was 112 nM.

For the molecule `CCC(C)(F)Cc1ncc(-c2ccc(C#N)nc2-c2ccn3cc(C)nc3c2)o1` (centres unmarked) [Example 90, 5-(2-(2-fluoro-2-methylbutyl)oxazol-5-yl)-6-(2-methylimidazo [1,2-a]pyridin-7-yl)picolinonitrile], the EC50 worked out at 31 nM. Consider `Cc1cn2ccc(-c3ncccc3-c3cnc(CC4(F)CCCC4)o3)cc2n1` [Example 91, 2-((1-fluorocyclopentyl)methyl)-5-(2-(2-methylimidazo [1,2-a]pyridin-7-yl)pyridin-3-yl)oxazole], for which the EC50 was 76 nM. For the molecule `Cc1cn2ccc(-c3nc(C#N)ccc3-c3cnc(CC(O)C(C)C)o3)cc2n1` (centres unmarked) [Example 92, 5-(2-(2-hydroxy-3-methylbutyl)oxazol-5-yl)-6-(2-methylimidazo [1,2-a]pyridin-7-yl)picolinonitrile], the EC50 was 131 nM. Then `COCc1cn2ccc(-c3nc(C#N)ccc3-c3cnc(CC4CC4)o3)cc2n1` [Example 93, 5-(2-(cyclopropylmethyl)oxazol-5-yl)-6-(2-(methoxymethyl)imidazo[1,2-a]pyridin-7-yl)picolinonitrile], with 137 nM; and `CC(Cc1ncc(-c2ccc(C#N)nc2-c2ccn3ccnc3c2)o1)C(F)F` (centres unmarked) [Example 94, 5-(2-(3,3-difluoro-2-methylpropyl)oxazol-5-yl)-6-(imidazo[1,2-a]pyridin-7-yl) picolinonitrile], with 137 nM. As for `Cc1cn2ccc(-c3nc(C#N)ccc3-c3cnc(CC(C)C(F)(F)F)o3)cc2n1` (centres unmarked) [Example 95, 6-(2-methylimidazo[1,2-a]pyridin-7-yl)-5-(2-(3,3,3-trifluoro-2-methylpropyl)oxazol-5-yl)picolinonitrile], the EC50 was found to be 194 nM. Then `CC1(Cc2ncc(-c3ccc(C#N)nc3-c3cnc4c(c3)C(=O)N(CCF)C4)o2)CCCC1` [Example 96, 6-(6-(2-fluoroethyl)-5-oxo-6,7-dihydro-5H-pyrrolo[3,4-b]pyridin-3-yl)-5-(2-((1-methylcyclopentyl)methyl)oxazol-5-yl)picolinonitrile], with 52 nM. With `Cc1cn2ccc(-c3nc(C#N)ccc3-c3cnc(CC4CC(F)(F)C4)o3)cc2n1` [Example 98, 5-(2-((3,3-difluorocyclobutyl)methyl)oxazol-5-yl)-6-(2-methylimidazo[1,2-a]pyridin-7-yl)picolinonitrile], the EC50 is 36 nM. Then `Cc1nc2cc(-c3nc(C#N)ccc3-c3cnc(CC4CC(F)(F)C4)o3)ccn2n1` [Example 99, 5-(2-((3,3-difluorocyclobutyl)methyl)oxazol-5-yl)-6-(2-methyl-[1,2,4]triazolo[1,5-a]pyridin-7-yl) picolinonitrile], with 89 nM; and `Cc1cn2ccc(-c3nc(C#N)ccc3-c3cnc(CC4(F)CC4)o3)cc2n1` [Example 100, 5-(2-((1-fluorocyclopropyl)methyl)oxazol-5-yl)-6-(2-methyl-imidazo[1,2-a]pyridin-7-yl)picolinonitrile], with 158 nM. The result for `N#Cc1ccc(-c2cnc(C[C@@H]3CC[C@H](F)C3)o2)c(-c2ccc3cccnc3c2)n1` [Example 101, 5-(2-(((1S,3S)-3-fluorocyclopentyl)methyl)oxazol-5-yl)-6-(quinolin-7-yl)picolinonitrile] reads 25 nM; that for `COc1cc2ccc(-c3nc(C)ccc3-c3cnc(C(F)(F)C4CCCC4)o3)cc2nn1` [Example 102, 2-(cyclopentyldifluoromethyl)-5-(2-(3-methoxycinnolin-7-yl)-6-methylpyridin-3-yl)oxazole], 51 nM; that for `CC(C)(F)CCc1ncc(-c2ccc(C#N)nc2-c2ccc3cccnc3c2)o1` [Example 103, 5-(2-(3-fluoro-3-methylbutyl)oxazol-5-yl)-6-(quinolin-7-yl)picolinonitrile], 86 nM. The result for `CC(C)(F)CCc1ncc(-c2ccc(C#N)nc2-c2ccn3ccnc3c2)o1` [Example 104, 5-(2-(3-fluoro-3-methylbutyl)oxazol-5-yl)-6-(imidazo[1,2-a]pyridin-7-yl) picolinonitrile] reads 147 nM; that for `Cc1nc2cc(-c3ncc(F)cc3-c3cnc(CCC(C)(C)F)o3)ccc2n1C` [Example 105, 5-(2-(1,2-dimethyl-1H-benzo[d]imidazol-5-yl)-5-fluoropyridin-3-yl)-2-(3-fluoro-3-methylbutyl)oxazole], 198 nM; that for `Cc1cn2ccc(-c3nc(C#N)ccc3-c3cnc(CCC(O)C(F)(F)F)o3)cc2n1` (centres unmarked) [Example 106, 6-(2-methylimidazo[1,2-a]pyridin-7-yl)-5-(2-(4,4,4-trifluoro-3-hydroxybutyl)oxazol-5-yl)picolinonitrile], 143 nM. `Cc1cn2ccc(-c3nc(C#N)ccc3-c3cnc(CCC(F)(F)F)o3)cc2n1` [Example 107, 6-(2-methylimidazo[1,2-a]pyridin-7-yl)-5-(2-(3,3,3-trifluoropropyl)oxazol-5-yl)picolinonitrile]: the EC50 was 96 nM. The result for `Cc1cn2ccc(-c3nc(C#N)ccc3-c3cnc(CCC(F)(F)C(F)(F)F)o3)cc2n1` [Example 108, 6-(2-methylimidazo [1,2-a]pyridin-7-yl)-5-(2-(3,3,4,4,4-pentafluorobutyl)oxazol-5-yl) picolinonitrile] reads 133 nM.
